These results are taken from patent US10150760B2, “Compounds for use in preparing heterocyclic triazole agonists of the APJ receptor” (AMGEN INC., priority 2016, dated 2018).

Each structure is given as a SMILES string. pEC50: −log10 of the molar value.

human APJ receptor, sequence (P35414 whole entry): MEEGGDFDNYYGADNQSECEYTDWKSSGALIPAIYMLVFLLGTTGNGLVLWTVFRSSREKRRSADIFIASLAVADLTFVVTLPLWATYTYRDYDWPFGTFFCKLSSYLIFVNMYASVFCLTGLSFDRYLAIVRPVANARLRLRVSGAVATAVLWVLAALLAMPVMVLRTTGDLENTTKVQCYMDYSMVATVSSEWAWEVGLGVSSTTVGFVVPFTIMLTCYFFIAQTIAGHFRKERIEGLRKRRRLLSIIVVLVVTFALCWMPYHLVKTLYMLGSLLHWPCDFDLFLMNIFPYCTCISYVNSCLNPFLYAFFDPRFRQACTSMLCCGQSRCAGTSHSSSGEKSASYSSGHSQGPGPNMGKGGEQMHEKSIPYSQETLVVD

For the experiment, the target named is human APJ receptor (Homo sapiens (Human), UniProt P35414). Description: [35S]GTPγS binding assay on membranes from CHO cells stably expressing human APJ receptor. The class given is biochemical. As to conditions: read-out: Activity hAPJ SPA EC50 IP. In outline:
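Agonist-driven [35S]GTPγS (0.2 nM) binding was measured over 90 min at room temperature on human APJ-expressing CHO membranes with bead capture, in buffer containing 3 μM GDP, 200 mM NaCl and 5 mM MgCl2 (pH 7.5). Excess unlabelled GTPγS (100 μM) gave nonspecific signal; EC50 from non-linear fits.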
In general terms: GTPγS is a poorly hydrolysed GTP analogue; its binding reports G protein activation.
In the case of `COc1cccc(OC)c1-n1c(NS(=O)(=O)[C@@H](C)[C@H](C)c2ncc(C)cn2)nnc1[C@@H]1CCCN(C)C1` (single isomer, unassigned) [Example 270.0, (2S,3R)-N-(4-(2,6-dimethoxyphenyl)-5-((R)-1-methylpiperidin-3-yl)-4H-1,2,4-triazol-3-yl)-3-(5-methylpyrimidin-2-yl)butane-2-sulfonamide or (2S,3R)-N-(4-(2,6-dimethoxyphenyl)-5-((S)-1-methylpiperidin-3-yl)-4H-1,2,4-triazol-3-yl)-3-(5-methylpyrimidin-2-yl)butane-2-sulfonamide], the pEC50 (commonly the negative decadic logarithm of the EC50, by convention in mol/L) was 6.39.
To `CO[C@H](c1ncc(Cl)cn1)[C@H](C)S(=O)(=O)Nc1nnc([C@@H]2COCCO2)n1C1(C)CC1` (single isomer, unassigned) [Example 271.0, (1R,2S)-N-(5-((R)-1,4-dioxan-2-yl)-4-(1-methylcyclopropyl)-4H-1,2,4-triazol-3-yl)-1-(5-chloropyrimidin-2-yl)-1-methoxypropane-2-sulfonamide or (1R,2S)-N-(5-((S)-1,4-dioxan-2-yl)-4-(1-methylcyclopropyl)-4H-1,2,4-triazol-3-yl)-1-(5-chloropyrimidin-2-yl)-1-methoxypropane-2-sulfonamide] belongs 6.85; to `CO[C@H](c1ncc(Cl)cn1)[C@H](C)S(=O)(=O)Nc1nnc([C@@H]2COCCO2)n1C1(C)CC1` (single isomer, unassigned) [Example 272.0, (1R,2S)-N-(5-((R)-1,4-dioxan-2-yl)-4-(1-methylcyclopropyl)-4H-1,2,4-triazol-3-yl)-1-(5-chloropyrimidin-2-yl)-1-methoxypropane-2-sulfonamide or (1R,2S)-N-(5-((S)-1,4-dioxan-2-yl)-4-(1-methylcyclopropyl)-4H-1,2,4-triazol-3-yl)-1-(5-chloropyrimidin-2-yl)-1-methoxypropane-2-sulfonamide], 6.00.
Then `COc1cccc(OC)c1-n1c(NS(=O)(=O)[C@@H](C)[C@H](C)c2ncc(F)cn2)nnc1[C@H]1CCOC1` (single isomer, unassigned) [Example 273.0, (2S,3R)-N-(4-(2,6-dimethoxyphenyl)-5-((R)-tetrahydrofuran-3-yl)-4H-1,2,4-triazol-3-yl)-3-(5-fluoropyrimidin-2-yl)butane-2-sulfonamide or (2S,3R)-N-(4-(2,6-dimethoxyphenyl)-5-((S)-tetrahydrofuran-3-yl)-4H-1,2,4-triazol-3-yl)-3-(5-fluoropyrimidin-2-yl)butane-2-sulfonamide], with 7.54; and `COc1cccc(OC)c1-n1c(NS(=O)(=O)[C@@H](C)[C@H](C)c2ncc(F)cn2)nnc1[C@H]1CCOC1` (single isomer, unassigned) [Example 274.0, (2S,3R)-N-(4-(2,6-dimethoxyphenyl)-5-((R)-tetrahydrofuran-3-yl)-4H-1,2,4-triazol-3-yl)-3-(5-fluoropyrimidin-2-yl)butane-2-sulfonamide or (2S,3R)-N-(4-(2,6-dimethoxyphenyl)-5-((S)-tetrahydrofuran-3-yl)-4H-1,2,4-triazol-3-yl)-3-(5-fluoropyrimidin-2-yl)butane-2-sulfonamide], with 7.11; and `COc1cccc(OC)c1-n1c(NS(=O)(=O)[C@@H](C)[C@H](C)c2ncc(F)cn2)nnc1[C@@H]1COCCO1` (single isomer, unassigned) [Example 276.0, (2S,3R)-N-(4-(2,6-dimethoxyphenyl)-5-((R)-1,4-dioxan-2-yl)-4H-1,2,4-triazol-3-yl)-3-(5-fluoropyrimidin-2-yl)butane-2-sulfonamide or (2S,3R)-N-(4-(2,6-dimethoxyphenyl)-5-((S)-1,4-dioxan-2-yl)-4H-1,2,4-triazol-3-yl)-3-(5-fluoropyrimidin-2-yl)butane-2-sulfonamide], with 7.48.
Turning to `COc1ncnc(OC)c1-n1c(NS(=O)(=O)[C@@H](C)[C@H](C)c2ncc(F)cn2)nnc1[C@@H]1COCCO1` (single isomer, unassigned) [Example 277.0, (2S,3R)-N-(4-(4,6-dimethoxypyrimidin-5-yl)-5-((R)-1,4-dioxan-2-yl)-4H-1,2,4-triazol-3-yl)-3-(5-fluoropyrimidin-2-yl)butane-2-sulfonamide or (2S,3R)-N-(4-(4,6-dimethoxypyrimidin-5-yl)-5-((S)-1,4-dioxan-2-yl)-4H-1,2,4-triazol-3-yl)-3-(5-fluoropyrimidin-2-yl)butane-2-sulfonamide], the negative logarithm of the EC50 (pEC50) is 7.64.
To `COc1ncnc(OC)c1-n1c(NS(=O)(=O)[C@@H](C)[C@H](C)c2ncc(F)cn2)nnc1[C@@H]1COCCO1` (single isomer, unassigned) [Example 278.0, (2S,3R)-N-(4-(4,6-dimethoxypyrimidin-5-yl)-5-((R)-1,4-dioxan-2-yl)-4H-1,2,4-triazol-3-yl)-3-(5-fluoropyrimidin-2-yl)butane-2-sulfonamide or (2S,3R)-N-(4-(4,6-dimethoxypyrimidin-5-yl)-5-((S)-1,4-dioxan-2-yl)-4H-1,2,4-triazol-3-yl)-3-(5-fluoropyrimidin-2-yl)butane-2-sulfonamide] belongs 6.29.
To `COc1ncnc(OC)c1-n1c(NS(=O)(=O)[C@@H](C)[C@@H](OC(C)C)c2ncc(Cl)cn2)nnc1[C@H]1CCC(C)(C)O1` (single isomer, unassigned) [Example 279.0, (1S,2S)-1-(5-chloropyrimidin-2-yl)-N-(4-(4,6-dimethoxypyrimidin-5-yl)-5-((R)-5,5-dimethyltetrahydrofuran-2-yl)-4H-1,2,4-triazol-3-yl)-1-isopropoxypropane-2-sulfonamide or (1S,2S)-1-(5-chloropyrimidin-2-yl)-N-(4-(4,6-dimethoxypyrimidin-5-yl)-5-((S)-5,5-dimethyltetrahydrofuran-2-yl)-4H-1,2,4-triazol-3-yl)-1-isopropoxypropane-2-sulfonamide] belongs 9.17; to `COc1ncnc(OC)c1-n1c(NS(=O)(=O)[C@@H](C)[C@@H](OC(C)C)c2ncc(Cl)cn2)nnc1[C@H]1CCC(C)(C)O1` (single isomer, unassigned) [Example 280.0, (1S,2S)-1-(5-chloropyrimidin-2-yl)-N-(4-(4,6-dimethoxypyrimidin-5-yl)-5-((R)-5,5-dimethyltetrahydrofuran-2-yl)-4H-1,2,4-triazol-3-yl)-1-isopropoxypropane-2-sulfonamide or (1S,2S)-1-(5-chloropyrimidin-2-yl)-N-(4-(4,6-dimethoxypyrimidin-5-yl)-5-((S)-5,5-dimethyltetrahydrofuran-2-yl)-4H-1,2,4-triazol-3-yl)-1-isopropoxypropane-2-sulfonamide], 8.12; to `COc1cccc(OC)c1-n1c(NS(=O)(=O)[C@@H](C)[C@@H](OC(C)C)c2ncc(Cl)cn2)nnc1[C@H]1CCOC1` (single isomer, unassigned) [Example 281.0, (1S,2S)-1-(5-chloropyrimidin-2-yl)-N-(4-(2,6-dimethoxyphenyl)-5-((R)-tetrahydrofuran-3-yl)-4H-1,2,4-triazol-3-yl)-1-isopropoxypropane-2-sulfonamide or (1S,25)-1-(5-chloropyrimidin-2-yl)-N-(4-(2,6-dimethoxyphenyl)-5-((S)-tetrahydrofuran-3-yl)-4H-1,2,4-triazol-3-yl)-1-isopropoxypropane-2-sulfonamide], 9.96.
To `COc1cccc(OC)c1-n1c(NS(=O)(=O)[C@@H](C)[C@@H](OC(C)C)c2ncc(Cl)cn2)nnc1[C@H]1CCOC1` (single isomer, unassigned) [Example 282.0, (1S,2S)-1-(5-chloropyrimidin-2-yl)-N-(4-(2,6-dimethoxyphenyl)-5-((R)-tetrahydrofuran-3-yl)-4H-1,2,4-triazol-3-yl)-1-isopropoxypropane-2-sulfonamide or (1S,25)-1-(5-chloropyrimidin-2-yl)-N-(4-(2,6-dimethoxyphenyl)-5-((S)-tetrahydrofuran-3-yl)-4H-1,2,4-triazol-3-yl)-1-isopropoxypropane-2-sulfonamide] belongs 8.80.
For `COc1cccc(OC)c1-n1c(NS(=O)(=O)[C@@H](C)[C@@H](OC(C)C)c2ncc(Cl)cn2)nnc1[C@@H]1COCCO1` (single isomer, unassigned) [Example 283.0, (1S,2S)-1-(5-chloropyrimidin-2-yl)-N-(4-(2,6-dimethoxyphenyl)-5-((R)-1,4-dioxan-2-yl)-4H-1,2,4-triazol-3-yl)-1-isopropoxypropane-2-sulfonamide or (1S,2S)-1-(5-chloropyrimidin-2-yl)-N-(4-(2,6-dimethoxyphenyl)-5-((S)-1,4-dioxan-2-yl)-4H-1,2,4-triazol-3-yl)-1-isopropoxypropane-2-sulfonamide], the pEC50 is 9.20.
Then `COCC1(n2c(NS(=O)(=O)[C@@H](C)[C@H](OC)c3ncc(Cl)cn3)nnc2[C@H]2CC[C@@H](C)O2)CC1` (single isomer, unassigned) [Example 285.0, (1R,2S)-1-(5-chloropyrimidin-2-yl)-1-methoxy-N-(4-(1-(methoxymethyl)cyclopropyl)-5-((2S,5S)-5-methyltetrahydrofuran-2-yl)-4H-1,2,4-triazol-3-yl)propane-2-sulfonamide or (1R,2S)-1-(5-chloropyrimidin-2-yl)-1-methoxy-N-(4-(1-(methoxymethyl)cyclopropyl)-5-((2R,5R)-5-methyltetrahydrofuran-2-yl)-4H-1,2,4-triazol-3-yl)propane-2-sulfonamide], with 7.19; and `COCC1(n2c(NS(=O)(=O)[C@@H](C)[C@H](OC)c3ncc(Cl)cn3)nnc2[C@H]2CC[C@@H](C)O2)CC1` (single isomer, unassigned) [Example 286.0, (1R,2S)-1-(5-chloropyrimidin-2-yl)-1-methoxy-N-(4-(1-(methoxymethyl)cyclopropyl)-5-((2S,5S)-5-methyltetrahydrofuran-2-yl)-4H-1,2,4-triazol-3-yl)propane-2-sulfonamide or (1R,2S)-1-(5-chloropyrimidin-2-yl)-1-methoxy-N-(4-(1-(methoxymethyl)cyclopropyl)-5-((2R,5R)-5-methyltetrahydrofuran-2-yl)-4H-1,2,4-triazol-3-yl)propane-2-sulfonamide], with 8.85.
